Patent US20250243180A1, “TARGETED PROTEIN DEGRADATION” (Monte Rosa Therapeutics AG, priority 2023, published 2025)
Like-named read-outs stand apart in the source and are kept apart here.

Key:
CRBN-DDB1 = CRBN-DDB1 (Homo sapiens (Human), UniProt Q96SW2); assay: Compound binding to CRBN by HTRF assay
Method in brief: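 Ki calculated via Cheng-Prusoff from geometric-mean EC50 values, after normalizing the HTRF ratio to lenalidomide (active) and DMSO (neutral) controls. Compounds (11 points, 1:3 steps) incubated 30 min at ambient temperature with CRBN-DDB1 2.5 nM, anti-His Tb cryptate and Cy5-thalidomide tracer 100 nM.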

NEK7 = NEK7 (Homo sapiens (Human), UniProt Q8TDX7+Q96SW2); assay: NEK7 NanoBiT degradation assay in Cal51 NEK7 NanoBiT cell line; format: cell-based; conditions: Cal51 NEK7 NanoBiT cells, 24 hours; for Dmax: CAL-51
Method in brief: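 EC50 comes from a 4-parameter fit of control-normalized luminescence. The luminescence reports HiBiT-NEK7 (endogenous knock-in) complemented by stably expressed LgBiT in Cal51 cells after 24 h compound exposure at 37 °C. Final concentrations ran 1 μM to 0.05 nM, with Endurazine substrate present in the medium throughout.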

[1] = NEK7 degradation, read-out: NanoBiT Dmax
[2] = NEK7 degradation, read-out: NanoBiT DC50

Chain of CRBN-DDB1 (Q96SW2 whole entry): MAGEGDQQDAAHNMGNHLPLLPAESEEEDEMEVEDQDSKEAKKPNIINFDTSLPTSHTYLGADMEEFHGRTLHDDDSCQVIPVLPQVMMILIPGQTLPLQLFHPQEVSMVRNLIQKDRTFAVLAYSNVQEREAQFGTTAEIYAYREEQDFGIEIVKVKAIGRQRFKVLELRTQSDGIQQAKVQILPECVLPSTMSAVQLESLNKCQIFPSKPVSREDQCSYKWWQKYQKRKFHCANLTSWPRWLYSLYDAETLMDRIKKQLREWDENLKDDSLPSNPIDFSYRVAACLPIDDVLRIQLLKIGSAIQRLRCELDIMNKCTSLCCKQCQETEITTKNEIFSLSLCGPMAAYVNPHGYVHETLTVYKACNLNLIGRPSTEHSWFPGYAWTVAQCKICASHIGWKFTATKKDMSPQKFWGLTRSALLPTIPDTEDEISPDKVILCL
Chain of CRBN-DDB1 (Q16531 whole entry partner): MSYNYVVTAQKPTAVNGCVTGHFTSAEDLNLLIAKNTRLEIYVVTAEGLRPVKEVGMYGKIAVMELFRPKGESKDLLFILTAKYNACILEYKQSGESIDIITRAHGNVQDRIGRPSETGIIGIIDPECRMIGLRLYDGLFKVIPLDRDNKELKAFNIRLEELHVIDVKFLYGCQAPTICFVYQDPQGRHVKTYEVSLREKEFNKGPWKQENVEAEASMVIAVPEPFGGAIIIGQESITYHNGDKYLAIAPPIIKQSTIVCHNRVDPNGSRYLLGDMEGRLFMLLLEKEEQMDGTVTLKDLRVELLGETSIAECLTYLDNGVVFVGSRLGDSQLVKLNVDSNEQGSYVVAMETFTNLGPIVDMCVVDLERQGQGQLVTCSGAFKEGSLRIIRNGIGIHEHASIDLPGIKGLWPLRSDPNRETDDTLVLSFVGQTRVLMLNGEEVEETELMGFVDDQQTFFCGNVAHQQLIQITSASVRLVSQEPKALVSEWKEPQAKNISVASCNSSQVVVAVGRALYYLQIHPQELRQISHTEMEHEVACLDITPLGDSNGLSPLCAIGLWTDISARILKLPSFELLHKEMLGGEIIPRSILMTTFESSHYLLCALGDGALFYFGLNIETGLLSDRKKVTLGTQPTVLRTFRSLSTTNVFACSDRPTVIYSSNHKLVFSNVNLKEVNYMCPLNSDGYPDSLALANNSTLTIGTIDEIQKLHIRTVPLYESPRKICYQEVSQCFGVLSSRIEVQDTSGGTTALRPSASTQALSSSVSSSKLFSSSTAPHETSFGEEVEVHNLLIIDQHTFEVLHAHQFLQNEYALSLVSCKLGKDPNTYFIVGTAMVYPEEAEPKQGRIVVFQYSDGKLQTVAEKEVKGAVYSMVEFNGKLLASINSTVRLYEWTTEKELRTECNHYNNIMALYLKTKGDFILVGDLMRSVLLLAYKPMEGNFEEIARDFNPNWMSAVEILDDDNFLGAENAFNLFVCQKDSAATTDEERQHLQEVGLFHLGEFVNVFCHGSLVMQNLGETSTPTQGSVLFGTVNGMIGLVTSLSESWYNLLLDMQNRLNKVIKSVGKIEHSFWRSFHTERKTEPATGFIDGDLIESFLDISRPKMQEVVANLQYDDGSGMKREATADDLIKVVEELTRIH
Chain of NEK7 (Q8TDX7 whole entry): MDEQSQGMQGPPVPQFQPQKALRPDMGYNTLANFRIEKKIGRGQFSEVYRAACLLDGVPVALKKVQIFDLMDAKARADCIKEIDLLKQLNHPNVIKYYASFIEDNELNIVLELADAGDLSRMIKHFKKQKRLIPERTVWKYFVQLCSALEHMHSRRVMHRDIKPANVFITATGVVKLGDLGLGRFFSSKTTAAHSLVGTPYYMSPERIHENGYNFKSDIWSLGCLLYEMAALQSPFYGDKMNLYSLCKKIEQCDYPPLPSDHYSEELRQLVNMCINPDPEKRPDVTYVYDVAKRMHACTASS
Chain of NEK7 (Q96SW2 whole entry): as the sequence (Q96SW2 whole entry) above
Chain of NEK7 (Q16531 2-1140 partner): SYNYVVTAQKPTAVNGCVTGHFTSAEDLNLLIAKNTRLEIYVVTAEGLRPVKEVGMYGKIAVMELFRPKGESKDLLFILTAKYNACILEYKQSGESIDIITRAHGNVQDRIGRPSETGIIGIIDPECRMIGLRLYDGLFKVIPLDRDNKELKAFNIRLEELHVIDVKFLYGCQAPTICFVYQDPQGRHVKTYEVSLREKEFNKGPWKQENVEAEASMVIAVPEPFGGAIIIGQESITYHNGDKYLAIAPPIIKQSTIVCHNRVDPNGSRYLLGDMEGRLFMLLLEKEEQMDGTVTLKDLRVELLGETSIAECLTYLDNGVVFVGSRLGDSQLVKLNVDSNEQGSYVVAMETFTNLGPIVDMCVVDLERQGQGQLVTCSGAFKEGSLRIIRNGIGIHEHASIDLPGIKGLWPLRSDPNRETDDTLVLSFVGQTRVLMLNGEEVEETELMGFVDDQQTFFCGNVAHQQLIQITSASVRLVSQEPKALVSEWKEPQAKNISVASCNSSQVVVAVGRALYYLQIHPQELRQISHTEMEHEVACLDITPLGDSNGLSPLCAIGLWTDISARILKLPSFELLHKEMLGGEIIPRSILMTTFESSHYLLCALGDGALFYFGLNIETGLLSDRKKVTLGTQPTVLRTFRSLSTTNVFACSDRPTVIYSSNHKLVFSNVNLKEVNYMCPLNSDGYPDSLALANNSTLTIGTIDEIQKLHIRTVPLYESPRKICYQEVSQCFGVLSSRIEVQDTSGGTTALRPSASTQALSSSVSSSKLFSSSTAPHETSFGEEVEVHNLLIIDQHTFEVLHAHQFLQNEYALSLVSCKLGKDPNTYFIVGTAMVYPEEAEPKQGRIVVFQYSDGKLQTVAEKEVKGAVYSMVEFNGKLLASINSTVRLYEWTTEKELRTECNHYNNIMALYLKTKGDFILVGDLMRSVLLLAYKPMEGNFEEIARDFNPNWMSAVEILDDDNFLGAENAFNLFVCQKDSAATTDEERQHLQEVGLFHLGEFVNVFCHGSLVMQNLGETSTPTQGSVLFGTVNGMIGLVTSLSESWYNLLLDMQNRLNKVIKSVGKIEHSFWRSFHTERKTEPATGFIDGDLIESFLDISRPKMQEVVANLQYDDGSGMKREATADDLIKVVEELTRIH

| Structure (SMILES) | EC50 (CRBN-DDB1) | EC50 (CRBN-DDB1; HTRF class, Cereblon binding) | Dmax (NEK7; read-out: NEK7 NanoBiT Dmax) | Dmax (NEK7; [1]) | DC50 (NEK7; read-out: NEK7 NanoBiT DC50) | DC50 (NEK7; [2]) |
| --- | --- | --- | --- | --- | --- | --- |
| CC(C)(C(=O)NCc1cc(Cl)c(C2CCC(=O)NC2=O)c(Cl)c1)c1ccnc2ccccc12 (stereo not drawn) [Compound 63] | 140 nM | 100 to 1000 nM | 62% | 50 to 75% | 91 nM | ≤ 100 nM |
| CC(C)(C(=O)NCc1ccc(C2CCC(=O)NC2=O)c(Br)c1)c1ccc(F)cc1 (stereo not drawn) [Compound 64] | 490 nM | 100 to 1000 nM | 86% | > 75% | 43 nM | ≤ 100 nM |
| CC(C)(C(=O)NCc1cc(Cl)c(C2CCC(=O)NC2=O)c(Cl)c1)c1cccc(C(N)=O)c1 (stereo not drawn) [Compound 65] | 140 nM | 100 to 1000 nM | 98% | > 75% | 1 nM | ≤ 100 nM |
| CC(C)(C(=O)NCc1cc(Cl)c(C2CCC(=O)NC2=O)c(Cl)c1)c1ccc(S(C)(=O)=O)cc1 (stereo not drawn) [Compound 66] | 90 nM | ≤ 100 nM | 96% | > 75% | 3 nM | ≤ 100 nM |
| Cn1cc(C(C)(C)C(=O)NCc2cc(Cl)c(C3CCC(=O)NC3=O)c(Cl)c2)ccc1=O (stereo not drawn) [Compound 67] | 220 nM | 100 to 1000 nM | 74% | 50 to 75% | 95 nM | ≤ 100 nM |
| CC(C)(C(=O)NCc1cc(Cl)c(C2CCC(=O)NC2=O)c(Cl)c1)c1c(F)cncc1F (stereo not drawn) [Compound 68] | 90 nM | ≤ 100 nM | 97% | > 75% | 1 nM | ≤ 100 nM |
| CC(C)(C(=O)NCc1cc(Cl)c(C2CCC(=O)NC2=O)c(Cl)c1)c1ccc2[nH]cnc2c1 (stereo not drawn) [Compound 69] | 60 nM | ≤ 100 nM | 97% | > 75% | 1 nM | ≤ 100 nM |
| CC(C)(C(=O)NCc1cc(Cl)c(C2CCC(=O)NC2=O)c(Cl)c1)c1ccc2[nH]ncc2c1 (stereo not drawn) [Compound 70] | 60 nM | ≤ 100 nM | 97% | > 75% | 0.5 nM | ≤ 100 nM |
| CN(C)c1ccc(C(C)(C)C(=O)NCc2cc(Cl)c(C3CCC(=O)NC3=O)c(Cl)c2)cc1 (stereo not drawn) [Compound 71] | 140 nM | 100 to 1000 nM | 90% | > 75% | 9 nM | ≤ 100 nM |
| Cn1c(=O)[nH]c2cc(C(C)(C)C(=O)NCc3cc(Cl)c(C4CCC(=O)NC4=O)c(Cl)c3)ccc21 (stereo not drawn) [Compound 72] | 470 nM | 100 to 1000 nM | 90% | > 75% | 11 nM | ≤ 100 nM |
| CC(C)(C(=O)NCc1cc(Cl)c(C2CCC(=O)NC2=O)c(Cl)c1)c1cc(F)nc(F)c1 (stereo not drawn) [Compound 73] | 170 nM | 100 to 1000 nM | 93% | > 75% | 4 nM | ≤ 100 nM |
| CC(C)(C(=O)NCc1cc(Cl)c(C2CCC(=O)NC2=O)c(Cl)c1)c1ccc2ncsc2c1 (stereo not drawn) [Compound 74] | 30 nM | ≤ 100 nM | 97% | > 75% | 1 nM | ≤ 100 nM |
| Cn1ccc(C(C)(C)C(=O)NCc2cc(Cl)c(C3CCC(=O)NC3=O)c(Cl)c2)cc1=O (stereo not drawn) [Compound 75] | 300 nM | 100 to 1000 nM | 92% | > 75% | 14 nM | ≤ 100 nM |
| CC(C)(C(=O)NCc1cc(Cl)c(C2CCC(=O)NC2=O)c(Cl)c1)c1ccc2[nH]c(=O)oc2c1 (stereo not drawn) [Compound 77] | 70 nM | ≤ 100 nM | 95% | > 75% | 3 nM | ≤ 100 nM |
| Cn1ncc2ccc(C(C)(C)C(=O)NCc3cc(Cl)c(C4CCC(=O)NC4=O)c(Cl)c3)cc21 (stereo not drawn) [Compound 78] | 60 nM | ≤ 100 nM | 97% | > 75% | 0.4 nM | ≤ 100 nM |
| CC(C)(C(=O)NCc1cc(Cl)c(C2CCC(=O)NC2=O)c(Cl)c1)c1ccc(=O)[nH]c1 (stereo not drawn) [Compound 79] | 250 nM | 100 to 1000 nM | 83% | > 75% | 92 nM | ≤ 100 nM |
| CC(C)(C(=O)NCc1cc(Cl)c(C2CCC(=O)NC2=O)c(Cl)c1)c1ccc(O)c(F)c1 (stereo not drawn) [Compound 80] | 30 nM | ≤ 100 nM | 97% | > 75% | 1 nM | ≤ 100 nM |
| CC(C)(C(=O)NCc1cc(Cl)c(C2CCC(=O)NC2=O)c(Cl)c1)c1ccc2nonc2c1 (stereo not drawn) [Compound 81] | 70 nM | ≤ 100 nM | 98% | > 75% | 0.4 nM | ≤ 100 nM |
| CC(C)(C(=O)NCc1cc(Cl)c(C2CCC(=O)NC2=O)c(Cl)c1)c1ccn2nccc2c1 (stereo not drawn) [Compound 82] | 90 nM | ≤ 100 nM | 96% | > 75% | 1 nM | ≤ 100 nM |
| CC(C)(C(=O)NCc1cc(Cl)c(C2CCC(=O)NC2=O)c(Cl)c1)c1ccc(C(N)=O)cc1 (stereo not drawn) [Compound 83] | 140 nM | 100 to 1000 nM | 94% | > 75% | 7 nM | ≤ 100 nM |
| CC(C)(C(=O)NCc1cc(Cl)c(C2CCC(=O)NC2=O)c(Cl)c1)c1cc[nH]c(=O)c1 (stereo not drawn) [Compound 84] | 180 nM | 100 to 1000 nM | 93% | > 75% | 22 nM | ≤ 100 nM |
| CC(C)(C(=O)NCc1cc(Cl)c(C2CCC(=O)NC2=O)c(Cl)c1)c1cncc(F)c1 (stereo not drawn) [Compound 85] | 40 nM | ≤ 100 nM | 81% | > 75% | 11 nM | ≤ 100 nM |
| Cc1cc(C(C)(C)C(=O)NCc2cc(Cl)c(C3CCC(=O)NC3=O)c(Cl)c2)cc(C)n1 (stereo not drawn) [Compound 86] | 160 nM | 100 to 1000 nM | 85% | > 75% | 21 nM | ≤ 100 nM |
| CC(C)(C(=O)NCc1cc(Cl)c(C2CCC(=O)NC2=O)c(Cl)c1)c1ccc2occc2c1 (stereo not drawn) [Compound 87] | 30 nM | ≤ 100 nM | 97% | > 75% | 0.1 nM | ≤ 100 nM |
| CC(C)(C(=O)NCc1cc(Cl)c(C2CCC(=O)NC2=O)c(Cl)c1)c1ccncc1F (stereo not drawn) [Compound 88] | 110 nM | 100 to 1000 nM | 93% | > 75% | 4 nM | ≤ 100 nM |
| Cc1ccc(C(C)(C)C(=O)NCc2cc(Cl)c(C3CCC(=O)NC3=O)c(Cl)c2)nc1 (stereo not drawn) [Compound 89] | 120 nM | 100 to 1000 nM | 92% | > 75% | 6 nM | ≤ 100 nM |
| Cn1ccc2cc(C(C)(C)C(=O)NCc3cc(Cl)c(C4CCC(=O)NC4=O)c(Cl)c3)ccc21 (stereo not drawn) [Compound 90] | 50 nM | ≤ 100 nM | 94% | > 75% | 4 nM | ≤ 100 nM |
